# Test results reported in US8765730B2 (Hoffmann-La Roche Inc, priority 2010, dated 2014).
# Target: T1, human GPBAR1 receptor (Homo sapiens, UniProt Q8TDU6)
# T1 construct: expressed in transfected cells
# T1 sequence (Q8TDU6 1-330): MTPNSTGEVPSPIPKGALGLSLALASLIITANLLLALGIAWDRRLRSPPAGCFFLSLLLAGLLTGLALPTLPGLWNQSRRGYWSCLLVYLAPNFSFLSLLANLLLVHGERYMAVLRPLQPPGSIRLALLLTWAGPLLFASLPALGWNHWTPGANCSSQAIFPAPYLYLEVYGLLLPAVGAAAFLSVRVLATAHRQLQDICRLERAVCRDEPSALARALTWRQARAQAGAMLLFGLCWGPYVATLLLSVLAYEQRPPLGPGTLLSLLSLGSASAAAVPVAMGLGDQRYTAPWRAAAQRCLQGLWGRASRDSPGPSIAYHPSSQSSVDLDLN
# Test: functional cAMP assay in CHO-dhfr(minus) cells expressing human GPBAR1 receptors
# Format: cell-based
# Conditions: human EC50, functional cAMP assay, 30 min at 30° C.
# How it was run: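 Agonist cAMP read-out: stable GPBAR1 CHO-dhfr− clone, 30 min compound exposure at 30° C following 30 min IBMX (1 mM) preincubation in Krebs Ringer bicarbonate. Time-resolved energy-transfer detection gives EC50; parental CHO cells serve as counter-screen.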
row,EC50 [nM],SMILES
1,12,"Cn1cc(/C(CC(c2ccc(Br)cc2)c2ccccc2Cl)=N/O)ccc1=O (stereo not drawn) [Example 203, 5-{3-(4-Bromo-phenyl)-3-(2-chloro-phenyl)-1-[(E)-hydroxyimino]-propyl}-1-methyl-1H-pyridin-2-one]"
2,6,"Cc1cc(F)ccc1C(C/C(=N\O)c1ccc(=O)n(C)c1)c1ccc(Br)cc1 (stereo not drawn) [Example 224, (E)-5-(3-(4-Bromophenyl)-3-(4-fluoro-2-methylphenyl)-1-(hydroxyimino)propyl)-1-methylpyridin-2(1H)-one]"
3,39,"Cc1cc(C(C[C@@H](c2ccc(-c3ccc(C(=O)N[C@@H](C)C(=O)O)cc3)cc2)c2ccccc2C)=NO)ccn1 (racemic) [Example 95, (S)-2-({4′-[(S)-3-[Hydroxyimino]-3-(2-methyl-pyridin-4-yl)-1-o-tolyl-propyl]-biphenyl-4-carbonyl}-amino)-propionic acid]"
4,30,"Cc1cc(/C(C[C@H](c2ccc(-c3nnc(C4CCOCC4)o3)cc2)c2ccccc2C)=N/O)ccn1 [Example 421, ((−), E)-1-(2-Methyl-pyridin-4-yl)-3-{4-[5-(tetrahydro-pyran-4-yl)-[1,3,4]oxadiazol-2-yl]-phenyl}-3-o-tolyl-propan-1-one oxime]"
5,666,"Cc1ccccc1[C@H](C/C(=N\O)c1ccc(=O)n(C)c1)c1ccc(CC(=O)O)cc1 [Example 493, (R,E)-2-(4-(3-(Hydroxyimino)-3-(1-methyl-6-oxo-1,6-dihydropyridin-3-yl)-1-o-tolylpropyl)phenyl)acetic acid]"
6,33,"O/N=C(\CC(c1ccccc1)c1ccc(-c2cncnc2)cc1)c1ccncc1 (stereo not drawn) [Example 22, (E)-3-Phenyl-1-pyridin-4-yl-3-(4-pyrimidin-5-yl-phenyl)-propan-1-one oxime]"
7,17,"Cc1cnc(F)cc1C(CC(c1ccccc1)c1ccccc1)=NO (racemic) [Example 59, 1-(2-Fluoro-5-methyl-pyridin-4-yl)-3,3-diphenyl-propan-1-one oxime]"
8,650,"Cc1cnc(F)c(/C(CC(c2ccc(Br)cc2)c2ccccc2C)=N/O)c1 (stereo not drawn) [Example 128, (E)-3-(4-Bromo-phenyl)-1-(2-fluoro-5-methyl-pyridin-3-yl)-3-o-tolyl-propan-1-one oxime]"
9,25,"Cn1cc(/C(CC(c2ccc(Br)cc2)c2ccc(Cl)cc2F)=N/O)ccc1=O (stereo not drawn) [Example 237, 5-{3-(4-Bromo-phenyl)-3-(4-chloro-2-fluoro-phenyl)-1-[(E)-hydroxyimino]-propyl}-1-methyl-1H-pyridin-2-one]"
10,11,"Cc1ccccc1C(C/C(=N\O)c1ccncc1)c1ccc(-c2cncnc2)cc1 (single isomer, unassigned; (-)) [Example 36, (−)-(E)-1-pyridin-4-yl-3-(4-pyrimidin-5-yl-phenyl)-3-o-tolyl-propan-1-one oxime]"
11,22,"Cc1cc(Cl)ccc1C(C/C(=N\O)c1ccc(=O)n(C)c1)c1ccc(-c2ccc(C(=O)NCC(=O)O)cc2)cc1 (stereo not drawn) [Example 229, (E)-2-(4′-(1-(4-chloro-2-methylphenyl)-3-(hydroxyimino)-3-(1-methyl-6-oxo-1,6-dihydropyridin-3-yl)propyl)biphenyl-4-ylcarboxamido)acetic acid]"
12,11,"Cc1cc(/C(C[C@H](c2ccc(N3CCS(=O)(=O)CC3)cc2)c2ccccc2C)=N/O)ccn1 [Example 271, (E,R)-3-[4-(1,1-Dioxo-1λ6-thiomorpholin-4-yl)-phenyl]-1-(2-methyl-pyridin-4-yl)-3-o-tolyl-propan-1-one oxime]"
13,84,"Cn1cc(/C(CC(c2ccc(S(C)(=O)=O)cc2)c2ccc(Cl)cc2F)=N/O)ccc1=O (stereo not drawn) [Example 314, (E)-5-(3-(4-chloro-2-fluorophenyl)-1-(hydroxyimino)-3-(4-(methylsulfonyl)phenyl)propyl)-1-methylpyridin-2(1H)-one]"
14,4100,"Cc1ccccc1C(C/C(=N\O)c1ccc(=O)n(C)c1)c1ccc(C(=O)N[C@H](C)CO)cc1 (stereo partly drawn) [Example 301, 4-((E)-3-(Hydroxyimino)-3-(1-methyl-6-oxo-1,6-dihydropyridin-3-yl)-1-o-tolylpropyl)-N-((R)-1-hydroxypropan-2-yl)benzamide]"
15,4,"Cc1cc(/C(C[C@@H](c2ccc(N3CCC(C(=O)O)CC3)cc2)c2ccc(Cl)cc2C)=N/O)ccn1 [Example 285, 1-{4-[(S)-1-(4-Chloro-2-methyl-phenyl)-3-[(E)-hydroxyimino]-3-(2-methyl-pyridin-4-yl)-propyl]-phenyl}-piperidine-4-carboxylic acid]"
16,1,"Cc1cc(/C(C[C@H](c2ccc(N3CCC(O)CC3)cc2)c2ccccc2C)=N/O)ccn1 [Example 145, (E,R)-3-(4-(4-Hydroxypiperidin-1-yl)phenyl)-1-(2-methylpyridin-4-yl)-3-o-tolylpropan-1-one oxime]"
17,138,"Cn1cc(/C(CC(c2ccc(-c3ccc(C(=O)O)cc3)cc2)c2ccc(F)cc2F)=N/O)ccc1=O (stereo not drawn) [Example 403, 4′-[1-(2,4-Difluoro-phenyl)-3-[(E)-hydroxyimino]-3-(1-methyl-6-oxo-1,6-dihydro-pyridin-3-yl)-propyl]-biphenyl-4-carboxylic acid]"
18,2730,"Cc1ccccc1C(CC(=NO)c1ccncc1)c1ccc(C(=O)O)cc1 (racemic) [Example 70, 4-{3-[Hydroxyimino]-3-pyridin-4-yl-1-o-tolyl-propyl}-benzoic acid]"
19,60,"COC(=O)CNC(=O)c1ccc(-c2ccc(C(C/C(=N\O)c3ccc(=O)n(C)c3)c3ccc(Cl)cc3C)cc2)cc1 (single isomer, unassigned; (+)) [Example 254, (+)-({4′-[1-(4-chloro-2-methyl-phenyl)-3-[(E)-hydroxyimino]-3-(1-methyl-6-oxo-1,6-dihydro-pyridin-3-yl)-propyl]-biphenyl-4-carbonyl}-amino)-acetic acid methyl ester]"
20,1160,"Cn1cc(/C(CC(c2ccc(C(=O)NC3CCOCC3)c(F)c2)c2ccccc2Cl)=N/O)ccc1=O (stereo not drawn) [Example 219, (E)-4-(1-(2-Chlorophenyl)-3-(hydroxyimino)-3-(1-methyl-6-oxo-1,6-dihydropyridin-3-yl)propyl)-2-fluoro-N-(tetrahydro-2H-pyran-4-yl)benzamide]"
21,8,"Cc1cc(F)ccc1[C@@H](C/C(=N\O)c1ccc(=O)n(C)c1)c1ccc(Br)cc1 (single isomer, unassigned) [Example 405, (+)-5-{3-(4-Bromo-phenyl)-3-(4-fluoro-2-methyl-phenyl)-1-[(E)-hydroxyimino]-propyl}-1-methyl-1H-pyridin-2-one]"
22,1700,"Cc1cc(/C(CC(c2cccc(-c3ccc(C(=O)O)c(F)c3)c2)c2ccccc2C)=N/O)ccn1 (stereo not drawn) [Example 101, 3-Fluoro-3′-[3-[(E)-hydroxyimino]-3-(2-methyl-pyridin-4-yl)-1-o-tolyl-propyl]-biphenyl-4-carboxylic acid]"
23,365,"Cc1ccccc1[C@H](C/C(=N\O)c1ccnc(C(F)(F)F)c1)c1ccc(-c2ccc(C(=O)O)cc2)cc1 [Example 291, 4′-[(R)-3-[(E)-Hydroxyimino]-1-o-tolyl-3-(2-trifluoromethyl-pyridin-4-yl)-propyl]-biphenyl-4-carboxylic acid]"
24,4500,"Cc1ccccc1[C@H](C/C(=N/O)c1ccc(=O)n(C)c1)c1ccc(C#N)cc1 [Example 499, (R,Z)-4-(3-(hydroxyimino)-3-(1-methyl-6-oxo-1,6-dihydropyridin-3-yl)-1-o-tolylpropyl)benzonitrile]"
